{
  "source": "patent US20070135490A1",
  "about": "“Phenetanolamine derivatives” (priority 2003, published 2007)",
  "data": [
    {"target": "T1, human beta-2 receptor (Homo sapiens, UniProt P07550)", "T1 construct": "expressed in transfected cells; host or cells: Chinese hamster ovary cells (whole cells or membranes derived from them)", "experiment": "Chinese hamster ovary cells co-expressing the human receptor with a reporter gene, cAMP measurement in whole cells or membranes (Method 2)", "type": "cell-based", "conditions": "CHO cells or membranes", "procedure": "(§1) Potency of compounds of the invention at the human beta 2, 1 and 3 receptors was also determined using Chinese hamster ovary cells co-expressing the human receptor with a reporter gene. Studies were performed using either whole cells or membranes derived from those cells.\n(§2) The three beta-receptors are coupled via the Gs G-protein to cause a simulation of adenylate cyclase resulting in increased levels of cAMP in the cell. For direct cAMP measurements either membranes or cells have been used with either the HitHunter enzyme fragment complementation kit (DiscoveRx) or the FP^2 fluorescence polarisation kit (Perkin Elmer) to quantify the levels of cAMP present. These assays provide a measure of agonist potency and intrinsic activity of the compounds at the various receptors. […]\n(§3) In this assay the potency of compounds at the human beta-2 receptor is expressed as a pEC50 value. Compounds of examples 12-26, 28-50 and 52-64 had pEC50 values greather than 6. […] No result is available for the compound of example 51.", "values": [
      {"compound": "Formic acid compound with 4-((1R)-1-hydroxy-2-{[2-(3-{[3-(2-hydroxyphenyl)propoxy]methyl}phenyl)ethyl]amino}ethyl)-2-(hydroxymethyl)phenol (1:1) [Example 27]", "pEC50 at the human beta-2 receptor": "less than 6"}
    ]},
    {"target": "T1, human beta-2 receptor", "experiment": "Chinese hamster ovary cells co-expressing the human receptor with a reporter gene, cAMP measurement in whole cells or membranes (Method 2)", "type": "cell-based", "conditions": "CHO cells or membranes, read-out: pEC50 at the human beta-2 receptor (converted)", "procedure": "as §1, §2, §3", "units": {"EC50": "nM"}, "values": [
      {"compound": "NS(=O)(=O)c1cccc(COCc2cccc(CCNC[C@H](O)c3ccc(O)c(CO)c3)c2)c1", "note": "[Example 64, 3-[({3-[2-({(2R)-2-Hydroxy-2-[4-hydroxy-3-(hydroxymethyl)phenyl]ethyl}amino)ethyl]benzyl}oxy)methyl]benzenesulfonamide acetate]", "EC50": "< 1000"},
      {"compound": "NS(=O)(=O)c1cccc(CCCOCc2cccc(CCNC[C@H](O)c3ccc(O)c(CO)c3)c2)c1", "note": "[Example 56, Formic acid compound with 3-[3-({3-[2-({(2R)-2-hydroxy-2-[4-hydroxy-3-(hydroxymethyl)phenyl]ethyl}amino)ethyl]benzyl}oxy)propyl]benzenesulfonamide (1:1)]", "EC50": "< 1000"},
      {"compound": "OCc1cc([C@@H](O)CNCCc2cccc(COCCc3cccc(F)c3)c2)ccc1O", "note": "[Example 39, Formic acid compound with 4-((1R)-2-{[2-(3-{[2-(3-fluorophenyl)ethoxy]methyl}phenyl)ethyl]amino}-1-hydroxyethyl)-2-(hydroxymethyl)phenol (1:1)]", "EC50": "< 1000"},
      {"compound": "N#Cc1cccc(CCCOCc2cccc(CCNC[C@H](O)c3ccc(O)c(CO)c3)c2)c1", "note": "[Example 22, Formic acid compound with 3-[3-({3-[2-({(2R)-2-hydroxy-2-[4-hydroxy-3-(hydroxymethyl)phenyl]ethyl}amino)ethyl]benzyl}oxy)propyl]benzonitrile (1:1)]", "EC50": "< 1000"},
      {"compound": "NC(=O)c1ccc(COCc2cccc(CCNC[C@H](O)c3ccc(O)c(CO)c3)c2)cc1", "note": "[Example 54, Formic acid compound with 4-[({3-[2-({(2R)-2-hydroxy-2-[4-hydroxy-3-(hydroxymethyl)phenyl]ethyl}amino)ethyl]benzyl}oxy)methyl]benzamide (1:1)]", "EC50": "< 1000"},
      {"compound": "COc1cccc(COCCOCc2cccc(CCNC[C@H](O)c3ccc(O)c(CO)c3)c2)c1", "note": "[Example 17, Formic acid compound with 4-[(1R)-1-hydroxy-2-({2-[3-({2-[(3-methoxybenzyl)oxy]ethoxy}methyl)phenyl]ethyl}amino)ethyl]-2-(hydroxymethyl)phenol (1:1)]", "EC50": "< 1000"},
      {"compound": "OCc1cc([C@@H](O)CNCCc2cccc(COCCOCc3cccc(O)c3)c2)ccc1O", "note": "[Example 32, Formic acid compound with 4-[(1R)-1-hydroxy-2-({2-[3-({2-[(3-hydroxybenzyl)oxy]ethoxy}methyl)phenyl]ethyl}amino)ethyl]-2-(hydroxymethyl)phenol (1:1)]", "EC50": "< 1000"},
      {"compound": "OCc1cc([C@@H](O)CNCCc2cccc(COCCc3ccccc3F)c2)ccc1O", "note": "[Example 41, Formic acid compound with 4-((1R)-2-{[2-(3-{[2-(2-fluorophenyl)ethoxy]methyl}phenyl)ethyl]amino}-1-hydroxyethyl)-2-(hydroxymethyl)phenol (1:1)]", "EC50": "< 1000"},
      {"compound": "CS(=O)(=O)c1cccc(CCCCOCc2cccc(CCNC[C@H](O)c3ccc(O)c(CO)c3)c2)c1", "note": "[Example 62, Formic acid compound with 2-(hydroxymethyl)-4-[(1R)-1-hydroxy-2-({2-[3-({4-[3-(methylsulfonyl)phenyl]butoxy}methyl)phenyl]ethyl}amino)ethyl]phenol (1:1)]", "EC50": "< 1000"},
      {"compound": "CS(=O)(=O)c1ccc(COCc2cccc(CCNC[C@H](O)c3ccc(O)c(CO)c3)c2)cc1", "note": "[Example 24, Formic acid compound with 2-(hydroxymethyl)-4-[(1R)-1-hydroxy-2-({2-[3-({[4-(methylsulfonyl)benzyl]oxy}methyl)phenyl]ethyl}amino)ethyl]phenol (1:1)]", "EC50": "< 1000"},
      {"compound": "OCc1cc([C@@H](O)CNCCc2cccc(COCCc3ccc(F)cc3)c2)ccc1O", "note": "[Example 40, Formic acid compound with 4-((1R)-2-{[2-(3-{[2-(4-fluorophenyl)ethoxy]methyl}phenyl)ethyl]amino}-1-hydroxyethyl)-2-(hydroxymethyl)phenol (1:1)]", "EC50": "< 1000"},
      {"compound": "C[C@@H](OCc1cccc(CCNC[C@H](O)c2ccc(O)c(CO)c2)c1)c1ccccc1", "note": "[Example 44, Formic acid compound with 2-(hydroxymethyl)-4-[(1R)-1-hydroxy-2-({2-[3-({[(1R)-1-phenylethyl]oxy}methyl)phenyl]ethyl}amino)ethyl]phenol (1:1)]", "EC50": "< 1000"},
      {"compound": "N#Cc1cccc(CCCCOCc2cccc(CCNC[C@H](O)c3ccc(O)c(CO)c3)c2)c1", "note": "[Example 37, Formic acid compound with 3-[4-({3-[2-({(2R)-2-hydroxy-2-[4-hydroxy-3-(hydroxymethyl)phenyl]ethyl}amino)ethyl]benzyl}oxy)butyl]benzonitrile (1:1)]", "EC50": "< 1000"},
      {"compound": "[O-][S+](c1cccc(COCCOCc2cccc(CCNC[C@H](O)c3ccc(O)c(CO)c3)c2)c1)C1CCCC1", "note": "(stereo partly drawn) [Example 34, Formic acid compound with 4-{(1R)-2-[(2-{3-[(2-{[3-(cyclopentylsulfinyl)benzyl]oxy}ethoxy)methyl]phenyl}ethyl)amino]-1-hydroxyethyl}-2-(hydroxymethyl)phenol (1:1)]", "EC50": "< 1000"},
      {"compound": "OCc1cc([C@@H](O)CNCCc2cccc(COCc3ccc(O)cc3)c2)ccc1O", "note": "[Example 26, Formic acid compound with 4-((1R)-1-hydroxy-2-{[2-(3-{[(4-hydroxybenzyl)oxy]methyl}phenyl)ethyl]amino}ethyl)-2-(hydroxymethyl)phenol (1:1)]", "EC50": "< 1000"},
      {"compound": "CC(OCCOCc1cccc(CCNC[C@H](O)c2ccc(O)c(CO)c2)c1)c1ccccc1", "note": "(stereo partly drawn) [Example 59, Formic acid compound with 2-(hydroxymethyl)-4-((1R)-1-hydroxy-2-{[2-(3-{[2-(1-phenylethoxy)ethoxy]methyl}phenyl)ethyl]amino}ethyl)phenol (1:1)]", "EC50": "< 1000"},
      {"compound": "OCc1cc([C@@H](O)CNCCc2cccc(COCCOCc3cccc(F)c3)c2)ccc1O", "note": "[Example 15, Formic acid compound with 4-[(1R)-2-({2-[3-({2-[(3-fluorobenzyl)oxy]ethoxy}methyl)phenyl]ethyl}amino)-1-hydroxyethyl]-2-(hydroxymethyl)phenol (1:1)]", "EC50": "< 1000"},
      {"compound": "OCc1cc([C@@H](O)CNCCc2cccc(COCCOCc3c(Cl)cccc3Cl)c2)ccc1O", "note": "[Example 14, Formic acid compound with 4-[(1R)-2-({2-[3-({2-[(2,6-dichlorobenzyl)oxy]ethoxy}methyl)phenyl]ethyl}amino)-1-hydroxyethyl]-2-(hydroxymethyl)phenol (1:1)]", "EC50": "< 1000"},
      {"compound": "OCc1cc([C@@H](O)CNCCc2cccc(COCCOc3ccccc3)c2)ccc1O", "note": "[Example 38, Formic acid compound with 2-(hydroxymethyl)-4-{(1R)-1-hydroxy-2-[(2-{3-[(2-phenoxyethoxy)methyl]phenyl}ethyl)amino]ethyl}phenol (1:1)]", "EC50": "< 1000"},
      {"compound": "O=S(=O)(c1cccc(CCCOCc2cccc(CCNC[C@H](O)c3ccc(O)c(CO)c3)c2)c1)C1CCCC1", "note": "[Example 31, Formic acid compound with 4-[(1R)-2-({2-[3-({3-[3-(cyclopentylsulfonyl)phenyl]propoxy}methyl)phenyl]ethyl}amino)-1-hydroxyethyl]-2-(hydroxymethyl)phenol (1:1)]", "EC50": "< 1000"},
      {"compound": "OCc1cc([C@@H](O)CNCCc2cccc(COCc3ccc(F)cc3)c2)ccc1O", "note": "[Example 50, Formic acid compound with 4-((1R)-2-{[2-(3-{[(4-fluorobenzyl)oxy]methyl}phenyl)ethyl]amino}-1-hydroxyethyl)-2-(hydroxymethyl)phenol (1:1)]", "EC50": "< 1000"},
      {"compound": "OCc1cc([C@@H](O)CNCCc2cccc(COCCCc3cccc(O)c3)c2)ccc1O", "note": "[Example 28, Formic acid compound with 4-((1R)-1-hydroxy-2-{[2-(3-{[3-(3-hydroxyphenyl)propoxy]methyl}phenyl)ethyl]amino}ethyl)-2-(hydroxymethyl)phenol (1:1)]", "EC50": "< 1000"},
      {"compound": "CS(=O)(=O)c1ccc(CCCOCc2cccc(CCNC[C@H](O)c3ccc(O)c(CO)c3)c2)cc1", "note": "[Example 23, Formic acid compound with 2-(hydroxymethyl)-4-[(1R)-1-hydroxy-2-({2-[3-({3-[4-(methylsulfonyl)phenyl]propoxy}methyl)phenyl]ethyl}amino)ethyl]phenol (1:1)]", "EC50": "< 1000"},
      {"compound": "O=S(=O)(c1cccc(COCCOCc2cccc(CCNC[C@H](O)c3ccc(O)c(CO)c3)c2)c1)C1CCCC1", "note": "[Example 33, Formic acid compound with 4-{(1R)-2-[(2-{3-[(2-{[3-(cyclopentylsulfonyl)benzyl]oxy}ethoxy)methyl]phenyl}ethyl)amino]-1-hydroxyethyl}-2-(hydroxymethyl)phenol (1:1)]", "EC50": "< 1000"},
      {"compound": "O=S(=O)(c1cccc(CCOCc2cccc(CCNC[C@H](O)c3ccc(O)c(CO)c3)c2)c1)C1CCCC1", "note": "[Example 60, Formic acid compound with 4-[(1R)-2-({2-[3-({2-[3-(cyclopentylsulfonyl)phenyl]ethoxy}methyl)phenyl]ethyl}amino)-1-hydroxyethyl]-2-(hydroxymethyl)phenol (1:1)]", "EC50": "< 1000"},
      {"compound": "NC(=O)c1cccc(COCCOCc2cccc(CCNC[C@H](O)c3ccc(O)c(CO)c3)c2)c1", "note": "[Example 52, Formic acid compound with 3-{[2-({3-[2-({(2R)-2-hydroxy-2-[4-hydroxy-3-(hydroxymethyl)phenyl]ethyl}amino)ethyl]benzyl}oxy)ethoxy]methyl}benzamide (1:1)]", "EC50": "< 1000"}
    ]}
  ]
}
